Molecular target: T1, UGT1A9 (Homo sapiens, UniProt O60656)
T1 construct: ultrapooled human liver microsomes (0.2 mg/mL), 5 mM UDPGA; from tissue; host or cells: ultrapooled human liver microsomes
T1 sequence (O60656 26-530): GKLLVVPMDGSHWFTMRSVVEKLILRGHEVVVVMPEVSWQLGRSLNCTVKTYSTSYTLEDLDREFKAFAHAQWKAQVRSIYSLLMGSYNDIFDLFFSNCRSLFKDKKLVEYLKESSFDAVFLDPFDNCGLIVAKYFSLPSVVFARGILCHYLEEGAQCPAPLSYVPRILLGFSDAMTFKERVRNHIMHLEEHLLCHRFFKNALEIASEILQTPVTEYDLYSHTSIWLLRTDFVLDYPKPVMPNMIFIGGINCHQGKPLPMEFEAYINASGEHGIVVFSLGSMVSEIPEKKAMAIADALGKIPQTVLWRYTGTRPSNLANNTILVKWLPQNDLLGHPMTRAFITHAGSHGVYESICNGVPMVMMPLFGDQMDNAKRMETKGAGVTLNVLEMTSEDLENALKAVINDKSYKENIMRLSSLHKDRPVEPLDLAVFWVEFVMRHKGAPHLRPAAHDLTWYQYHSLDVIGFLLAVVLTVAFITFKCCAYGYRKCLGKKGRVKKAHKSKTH
Assay: UGT1A9-catalyzed mycophenolic acid glucuronidation in human liver microsomes
Type: in vitro ADME
Conditions: at 50 µM
Experimental: The inhibitory effects of EAM-2201 on UGT1A1, UGT1A3, UGT1A4, UGT1A6, UGT1A9 and UGT2B7 were evaluated using LC-MS/MS and the cocktail of UGT substrates as previously described. Each incubation mixture was prepared in a final volume of 100 µL as follows: ultrapooled human liver microsomes (0.2 mg/mL), 5 mM UDPGA, 10 mM magnesium chloride, alamethicin (25 µg/mL), 50 mM Tris buffer (pH 7.4), various concentrations of EAM-2201 in DMSO (final concentrations of 1–50 µM, 0.5% DMSO) and the UGT enzyme-specific substrates of two cocktail sets (set A: 0.5 µM SN-38, 2 µM chenodeoxycholic acid and 0.5 µM trifluoperazine; set B: 1 µM N-acetylserotonin, 0.2 µM mycophenolic acid and 1 µM naloxone, acetonitrile content, 0.5%). […] Supernatant from sets A and B (50 µL of each) was mixed and aliquots (5 µL) were analyzed by LC-MS/MS. […]
The metabolites formed from the six UGT cocktail substrates were simultaneously measured using LC-MS/MS [41]. […] Each metabolite was quantified via SRM in the negative ion mode: chenodeoxycholic acid 24-acyl-β-glucuronide, 567.2 > 391.0; mycophenolic acid glucuronide, 495.2 > 318.9; and propofol glucuronide (IS), 353.3 > 177.1; and in the positive ion mode: SN-38 glucuronide, 569.0 > 393.0; trifluoperazine glucuronide, 584.2 > 408.1; N-acetylserotonin-β-D-glucuronide, 395.2 > 219.0; naloxone 3-β-D-glucuronide, 504.0 > 310.0; and meloxicam (IS), 352.0 > 115.1. […]

CCc1ccc(C(=O)c2cn(CCCCCF)c3ccccc23)c2ccccc12 [EAM-2201, (4-ethyl-1-naphthalenyl)[1-(5-fluoropentyl)-1H-indol-3-yl]-methanone]
inhibition of UGT1A9-catalyzed mycophenolic acid glucuronidation: negligibly inhibited

Source: PMC6017357, “In Vitro Inhibitory Effects of Synthetic Cannabinoid EAM-2201 on Cytochrome P450 and UDP-Glucuronosyltransferase Enzyme Activities in Human Liver Microsomes” (Molecules : A Journal of Synthetic Chemistry and Natural …, 2018)
